Experimental data from BindingDB's records for patent US20250313563 (The Broad Institute, 2025).
pIC50: −log10 of the molar value. Several values for one entry are separate records, joined by “and”; a condition that tells them apart may be missing. Equal values may be shown once.

Columns and labels:
[1] = target: Glycogen synthase kinase-3 alpha (Homo sapiens, UniProt P49840); test: TR-FRET Assay
Method in brief: (§1)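 Kinase activity, measured after a 30-minute compound preincubation, was stopped with EDTA and quantified by TR-FRET using a Tb-labelled pSer641 antibody paired with streptavidin-d2.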

[2] = target: Glycogen synthase kinase-3 beta (Homo sapiens, UniProt P49841); test: TR-FRET Assay
Method in brief: as §1

Glycogen synthase kinase-3 alpha, sequence (P49840 whole entry): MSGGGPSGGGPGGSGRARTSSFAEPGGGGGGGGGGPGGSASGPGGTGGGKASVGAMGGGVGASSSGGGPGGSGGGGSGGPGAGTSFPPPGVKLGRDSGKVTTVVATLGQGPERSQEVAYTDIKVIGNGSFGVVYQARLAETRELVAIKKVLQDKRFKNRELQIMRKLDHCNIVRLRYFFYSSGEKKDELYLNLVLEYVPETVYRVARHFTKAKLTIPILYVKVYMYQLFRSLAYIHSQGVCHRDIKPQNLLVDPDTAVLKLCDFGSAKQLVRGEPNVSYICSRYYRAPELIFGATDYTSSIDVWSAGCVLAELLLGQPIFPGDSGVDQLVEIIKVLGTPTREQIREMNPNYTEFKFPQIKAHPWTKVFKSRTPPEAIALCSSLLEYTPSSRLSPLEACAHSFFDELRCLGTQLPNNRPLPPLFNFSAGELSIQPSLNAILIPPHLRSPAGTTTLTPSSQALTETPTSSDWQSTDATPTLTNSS
Glycogen synthase kinase-3 beta, sequence (P49841 whole entry): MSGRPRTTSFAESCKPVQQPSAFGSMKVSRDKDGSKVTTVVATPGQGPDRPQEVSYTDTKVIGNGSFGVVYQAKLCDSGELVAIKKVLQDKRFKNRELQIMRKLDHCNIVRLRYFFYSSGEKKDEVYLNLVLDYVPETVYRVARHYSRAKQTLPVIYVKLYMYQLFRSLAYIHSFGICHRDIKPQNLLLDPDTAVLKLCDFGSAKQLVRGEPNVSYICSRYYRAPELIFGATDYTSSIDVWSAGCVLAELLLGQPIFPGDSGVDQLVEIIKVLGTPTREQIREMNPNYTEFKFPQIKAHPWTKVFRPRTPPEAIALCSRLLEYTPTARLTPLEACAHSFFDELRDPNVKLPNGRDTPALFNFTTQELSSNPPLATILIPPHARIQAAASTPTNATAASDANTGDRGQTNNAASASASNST

Row | Structure (SMILES) | pIC50 [1] | pIC50 [2]
1 | CCC1(c2cccc(-c3cnn(C)c3)c2)C2=CN=NC2NC2=C1C(=O)CC(C)(C)C2 (stereo unspecified) [US20250313563, Compound 816871] | > 7.00 | 6.00 to 7.00
2 | CCC1(c2cccc(N3CCCC3)c2)C2=C(CC(C)(C)NC2=O)NC2N=NC(C)=C21 (stereo unspecified) [US20250313563, Compound 947673] | > 7.00 | 6.00 to 7.00
3 | CCCC(C(C)=O)c1cccc(C2(CC)C3=CN=NC3NC3=C2C(=O)CC(C)(C)C3)c1 (stereo unspecified) [US20250313563, Compound 909205] | > 7.00 | > 7.00
4 | CC[C@]1(c2cc(N(C)C(C)=O)ccc2F)C2=CN=NC2NC2=C1C(=O)CC(C)(C)C2 (stereo partly specified) [US20250313563, Compound 929450] | > 7.00 | 6.00 to 7.00
5 | CC[C@@]1(c2cccc(OCC(F)F)c2)C2=CN=NC2NC2=C1C(=O)CC(C)(C)C2 (stereo partly specified) [US20250313563, Compound 949113] | 5.30 to 6.00 | < 5.30
6 | CCC1(c2cccc(N(C)c3ccccn3)c2)C2=CN=NC2NC2=C1C(=O)CC(C)(C)C2 (stereo unspecified) [US20250313563, Compound 874294] | > 7.00 | 6.00 to 7.00
7 | CC[C@@]1(c2cccc(-c3cnn(C)c3C)c2)C2=CN=NC2NC2=C1C(=O)NC(C)(C)C2 (stereo partly specified) [US20250313563, Compound 945608] | > 7.00 | 6.00 to 7.00
8 | CCC1(c2cccc(-c3ccncc3C)c2)C2=CN=NC2NC2=C1C(=O)NC(C)(C)C2 (stereo unspecified) [US20250313563, Compound 945461] | > 7.00 | > 7.00
9 | CCC1(c2cccc(S(=O)(=O)C3CCOCC3)c2)C2=CN=NC2NC2=C1C(=O)CC(C)(C)C2 (stereo unspecified) [US20250313563, Compound 927344] | > 7.00 | > 7.00
10 | CC[C@@]1(c2cccc(C(F)(F)F)c2)C2=CN=NC2NC2=C1C(=O)N[C@H](C(C)(C)C)C2 (stereo partly specified) [US20250313563, Compound 945922] | > 7.00 | 6.00 to 7.00
11 | CC[C@]1(c2cccc(-c3cc(C)ncc3F)c2)C2=C(CC(C)(C)NC2=O)NC2N=NC(C)=C21 (stereo partly specified) [US20250313563, Compound 949327] | 5.30 to 6.00 | < 5.30
12 | CC1(C)CC(=O)C2=C(C1)NC1=C(CN=N1)C21CCN(S(=O)(=O)c2cc(Cl)ccc2Cl)CC1 [US20250313563, Compound 948122] | > 7.00 | 6.00 to 7.00
13 | CC[C@H]1C[C@]2(CCO1)C1=C(N=NC1)NC1=C2C(=O)CC(C)(C)C1 [US20250313563, Compound 907329] | 6.00 to 7.00 | 5.30 to 6.00
14 | CC[C@@]1(c2cccc(-c3cnn(C(F)F)c3)c2)C2=CN=NC2NC2=C1C(=O)NC(C)(C)C2 (stereo partly specified) [US20250313563, Compound 950254] | > 7.00 | 5.30 to 6.00
15 | CC1N=NC2=C1C1(CCCC1)C1=C(CC(C)(C)CC1=O)N2 (stereo unspecified) [US20250313563, Compound 786072] | > 7.00 | > 7.00
16 | CC[C@]1(c2cccc(S(=O)(=O)C3CC3)c2)C2=C(CC(C)(C)CC2=O)NC2N=NC(C(F)(F)F)=C21 (stereo partly specified) [US20250313563, Compound 945715] | > 7.00 | > 7.00
17 | CC[C@]1(c2cccc(-c3c(C#N)cnn3C)c2)C2=C(CC(C)(C)NC2=O)NC2N=NC(C)=C21 (stereo partly specified) [US20250313563, Compound 952410] | > 7.00 and 6.00 to 7.00 | > 7.00 and 5.30 to 6.00
18 | CC(C)(C)CC1=C2C(N=N1)NC1=C(C(=O)CC(C)(C)C1)C21CCc2ccc(F)cc21 (stereo unspecified) [US20250313563, Compound 784440] | 6.00 to 7.00 | > 7.00
19 | COc1ccc(F)c(S(=O)(=O)N2CCC3(CC2)C2=C(N=NC2)NC2=C3C(=O)CC(C)(C)C2)c1 [US20250313563, Compound 945665] | > 7.00 | > 7.00
20 | CC[C@@]1(c2cccc(-c3c(F)cncc3Cl)c2)C2=CN=NC2NC2=C1C(=O)NC(C)(C)C2 (stereo partly specified) [US20250313563, Compound 948371] | > 7.00 and 6.00 to 7.00 | > 7.00 and 6.00 to 7.00
21 | CC[C@@]1(c2cccc(-c3cc(C)ncc3C)c2)C2=C(CC(C)(C)CC2=O)NC2N=NC(C)=C21 (stereo partly specified) [US20250313563, Compound 913019] | 6.00 to 7.00 | 5.30 to 6.00
22 | CCC1(c2cccc(-c3ncnn3C)c2)C2=CN=NC2NC2=C1C(=O)CC(C)(C)C2 (stereo unspecified) [US20250313563, Compound 943532] | > 7.00 | 6.00 to 7.00
23 | CC1(C)CC(=O)C2=C(C1)NC1=C(CN=N1)C21CN(CC2CCOCC2)C1 [US20250313563, Compound 943545] | < 5.30 | < 5.30
24 | CC[C@]1(c2cccc(-c3ccnc(C(F)F)c3)c2)C2=CN=NC2NC2=C1C(=O)CC(C)(C)C2 (stereo partly specified) [US20250313563, Compound 943915] | < 5.30 | < 5.30
25 | CC[C@@]1(c2cccc(N(C)C(=O)c3ccn(C)n3)c2)C2=CN=NC2NC2=C1C(=O)CC(C)(C)C2 (stereo partly specified) [US20250313563, Compound 929442] | > 7.00 | 6.00 to 7.00
26 | CCC1(c2cccc(-c3ccncc3C)c2)C2=C(CC(C)(C)NC2=O)NC2N=NC(C)=C21 (stereo unspecified) [US20250313563, Compound 945599] | > 7.00 | > 7.00
27 | CC[C@@]1(c2cccc(-c3ccncc3C)c2)C2=CN=NC2NC2=C1C(=O)CC(C)(C)C2 (stereo partly specified) [US20250313563, Compound 913047] | > 7.00 | > 7.00 and 6.00 to 7.00

Row | Structure (SMILES) | pIC50 [1] | pIC50 [2]
28 | CC1(C)CC(=O)C2=C(C1)NC1=C(CN=N1)C21COC2(CN(C(=O)CC3CC(F)(F)C3)C2)C1 (stereo unspecified) [US20250313563, Compound 947278] | > 7.00 | > 7.00
29 | COc1cc(S(=O)(=O)N2CCC3(CC2)C2=C(N=NC2)NC2=C3C(=O)CC(C)(C)C2)ccc1Cl [US20250313563, Compound 945669] | > 7.00 | > 7.00
30 | CC[C@@]1(c2cccc(N(C)c3nccc(C)n3)c2)C2=CN=NC2NC2=C1C(=O)CC(C)(C)C2 (stereo partly specified) [US20250313563, Compound 945329] | 6.00 to 7.00 | 5.30 to 6.00
31 | CC1(C)CC(=O)C2=C(C1)NC1N=NC(CC(F)(F)F)=C1C21CCc2c(F)cccc21 (stereo unspecified) [US20250313563, Compound 810590] | 6.00 to 7.00 | 6.00 to 7.00
32 | CCC1(c2cccc(S(=O)(=O)CC3CC3)c2)C2=C(CC(C)(C)NC2=O)NC2=C1C(C(F)(F)F)N=N2 (stereo unspecified) [US20250313563, Compound 948179] | > 7.00 | > 7.00
33 | CC[C@]1(c2cccc(Cl)c2)C2=C(CC(C)(C)CC2=O)NC2N=NC(C(F)(F)F)=C21 (stereo partly specified) [US20250313563, Compound 801308] | > 7.00 | > 7.00 and 6.00 to 7.00
34 | CC[C@]1(c2cccc(-c3ccnn3C)c2)C2=CN=NC2NC2=C1C(=O)NC(C)(C)C2 (stereo partly specified) [US20250313563, Compound 927389] | > 7.00 and 6.00 to 7.00 | > 7.00 and 5.30 to 6.00
35 | CC1(C)CC(=O)C2=C(C1)NC1=C(CN=N1)C21CN(C2COC2)C1 [US20250313563, Compound 912076] | 6.00 to 7.00 | 5.30 to 6.00
36 | CC[C@]1(c2cccc(-c3ccncc3F)c2)C2=C(CC(C)(C)NC2=O)NC2N=NC(Cl)=C21 (stereo partly specified) [US20250313563, Compound 949756] | < 5.30 | < 5.30
37 | CC[C@]1(c2cccc(-c3ccnn3C)c2)C2=CN=NC2NC2=C1C(=O)N[C@]1(CCCOC1)C2 (stereo partly specified) [US20250313563, Compound 948365] | 5.30 to 6.00 | < 5.30
38 | CCCn1nccc1-c1cccc(C2(CC)C3=CN=NC3NC3=C2C(=O)CC(C)(C)C3)c1 (stereo unspecified) [US20250313563, Compound 929400] | > 7.00 | > 7.00
39 | CC[C@]1(c2cccc(C(F)(F)F)c2)C2=C(N=NC2)NC2=C1C(=O)N(Cc1ccccc1)[C@H]2C [US20250313563, Compound 930331] | > 7.00 | 6.00 to 7.00
40 | O=C1C2=C(NC3N=NC=C3C23CCOCC3)C2CCC1C2 (stereo unspecified) [US20250313563, Compound 901464] | 6.00 to 7.00 | 6.00 to 7.00
41 | CCC1(c2cccc(S(=O)(=O)C3COC3)c2)C2=CN=NC2NC2=C1C(=O)CC(C)(C)C2 (stereo unspecified) [US20250313563, Compound 944017] | > 7.00 | > 7.00
42 | CC[C@@]1(c2cccc(C(F)(F)F)c2)C2=CN=NC2NC2=C1C(=O)N(C)C(C)(C)C2 (stereo partly specified) [US20250313563, Compound 826791] | 6.00 to 7.00 | 5.30 to 6.00
43 | CC(C)[C@H]1C[C@@]2(CCO1)C1=C(N=NC1)NC1=C2C(=O)CC(C)(C)C1 [US20250313563, Compound 884014] | 5.30 to 6.00 | < 5.30
44 | CC[C@]1(c2cccc(S(=O)(=O)C3CC3)c2)C2=CN=NC2NC2=C1C(=O)N(C)C(C)(C)C2 (stereo partly specified) [US20250313563, Compound 949184] | 5.30 to 6.00 | < 5.30
45 | CC(=O)N1CCC2(CC1)C1=C(N=NC1)NC1=C2C(=O)CC(C)(C)C1 [US20250313563, Compound 826649] | 6.00 to 7.00 | 5.30 to 6.00
46 | CC[C@]1(c2ccccc2)C2=CN=NC2NC2=C1C(=O)[C@@H](F)C(C)(C)C2 (stereo partly specified) [US20250313563, Compound 957405] | 6.00 to 7.00 | 5.30 to 6.00
47 | CC[C@]1(c2cccc(C)c2)C2=CN=NC2NC2=C1C(=O)CC1(CCCC1)C2 (stereo partly specified) [US20250313563, Compound 801313] | < 5.78 | < 5.30
48 | COc1ccc(S(=O)(=O)N2CCC3(CC2)C2=C(N=NC2)NC2=C3C(=O)CC(C)(C)C2)cc1Cl [US20250313563, Compound 947612] | > 7.00 | > 7.00
49 | CC1(C)CC(=O)C2=C(C1)NC1=C(CN=N1)C21CCN(S(=O)(=O)c2ccc(F)cn2)CC1 [US20250313563, Compound 947251] | 6.00 to 7.00 | 6.00 to 7.00
50 | CC1(C)CC(=O)C2=C(C1)NC1=C(CN=N1)C21CCN(S(=O)(=O)c2ccccc2F)CC1 [US20250313563, Compound 901465] | > 7.00 | > 7.00 and 6.00 to 7.00
51 | CC[C@@]1(c2cccc(-c3cnn(CCc4ccccc4)c3)c2)C2=CN=NC2NC2=C1C(=O)NC(C)(C)C2 (stereo partly specified) [US20250313563, Compound 952017] | > 7.00 | 6.00 to 7.00
52 | CC[C@]1(c2ccccc2)C2=CN=NC2NC2=C1C(=O)[C@@H](C)C[C@@H]2C (stereo partly specified) [US20250313563, Compound 865202] | < 5.30 | < 5.30
53 | Cn1ccc(S(=O)(=O)N2CCC3(CC2)C2=C(N=NC2)NC2=C3C(=O)CC(C)(C)C2)n1 [US20250313563, Compound 901471] | > 7.00 and 6.00 to 7.00 | > 7.00 and 5.30 to 6.00
